From patent publication US9168266B2, “Hybrid diazeniumdiolated compounds, pharmaceutical compositions, and method of treating cancer” (The United States of America, as represented by the …, priority 2011, dated 2015)
Where two headings read alike, the source gives them in different places.

What was measured:
H1355 = assay: MTT cell proliferation assay; assay type: cell-based
Procedure: (§1) Cell lines were obtained from the American Type Culture Collection (Manassas, Va.) and cultured according to the supplier's protocol. For proliferation assays cells were seeded at 1×10^4 per well (H1693, H322M, H1703, H1944, H1355, H2122, H441, H1568) or 5×10^3 per well (H460, H1792, A549, H2023, H2030, H23) in 96-well plates and allowed to adhere for 24 h. Compounds were prepared as 10 mM stock solutions in DMSO. Increasing drug concentrations in 10 μl of PBS were added to 100 μl of the culture medium for 72 h. MTT assay (Promega, Madison, Wis.) was performed according to the manufacturer's protocol. Each concentration was represented in six repeats, and the screening was performed as at least two independent experiments. IC50 values were calculated by using Sigma Plot software (Systat Software, Inc., San Jose, Calif.).

A549 = assay: MTT cell proliferation assay; assay type: cell-based; conditions: A549, 72 h
Procedure: as §1

H2030 = assay: MTT cell proliferation assay; assay type: cell-based
Procedure: as §1

H1944 = assay: MTT cell proliferation assay; assay type: cell-based
Procedure: as §1

H2122 = assay: MTT cell proliferation assay; assay type: cell-based
Procedure: as §1

H23 = assay: MTT cell proliferation assay; assay type: cell-based
Procedure: as §1

H1693 = assay: MTT cell proliferation assay; assay type: cell-based
Procedure: as §1

H441 = assay: MTT cell proliferation assay; assay type: cell-based
Procedure: as §1

H2023 = assay: MTT cell proliferation assay; assay type: cell-based
Procedure: as §1

H1568 = assay: MTT cell proliferation assay; assay type: cell-based
Procedure: as §1

H1792 = assay: MTT cell proliferation assay; assay type: cell-based
Procedure: as §1

H322M = assay: MTT cell proliferation assay; assay type: cell-based; conditions: 72 h
Procedure: as §1

NSCLC cells [1] = assay: Western blot for cleaved caspase 7 (apoptosis); assay type: cell-based; conditions: 10 μm, DMSO control
Procedure: (§2) The alkaline comet assay was performed as described (Romanowska et al., Free Radical Biol. Med., 43: 1145-1155 (2007)). Western blot analysis was performed as described previously (Maciag et al., J. Pharmacol. Exp. Ther., 336: 313-320 (2011)). Primary antibodies for cleaved caspase 7 (Cell Signaling Technology, Danvers, Mass.) were used.

H460 = assay: MTT cell proliferation assay; assay type: cell-based, human
Procedure: as §1

H1703 = assay: MTT cell proliferation assay; assay type: cell-based
Procedure: as §1

[2] = test system: H1703 lung adenocarcinoma cells; assay: Intracellular ROS/RNS level, DCF fluorescence; assay type: cell-based; conditions: 10 μM, 60 min, versus DMSO
Procedure: Intracellular level of reactive oxygen/nitrogen species was quantified by the oxidation of the ROS/RNS-sensitive fluorophore 5-(and-6)-chloromethyl-2′,7′-dichlorodihydrofluorescein diacetate (Invitrogen, Carlsbad, Calif.). Cells growing on six-well plates (6×10^5/well) were loaded with 5 μM 5-(and-6)-chloromethyl-2′,7′-dichlorodihydrofluorescein diacetate in Hanks' balanced salt solution (HBSS) at 37° C. and 5% CO2. After 30 min of incubation, HBSS containing the probe was removed, cells were rinsed with HBSS, and 3 ml of fresh HBSS was added to each well followed by the addition of compounds (10 μM) or DMSO as a control. After 60 min, the cells were collected by scraping in HBSS, and 2′,7′-dichlorofluorescein (DCF) fluorescence was measured by using a PerkinElmer Life and Analytical Sciences (Waltham, Mass.) LS50B luminescence spectrometer with the excitation source at 488 nm and emission at 530 nm.

[3] = test system: H1703 lung adenocarcinoma cells; assay: Intracellular NO release, DAF-FM diacetate fluorescence; assay type: cell-based; conditions: 10 μM; for intracellular NO release (DAF fluorescence): 30 min, H1703 cells; for cell permeability: inferred from intracellular NO release
Procedure: The intracellular level of nitric oxide after treatment with the compounds JS-59-183 or JS-60-178 was quantified by using the NO-sensitive fluorophore 4-amino-5-methylamino-2,7 difluorofluorescein (DAF-FM) diacetate (Invitrogen, Carlsbad, Calif.). Cells growing on six-well plates were loaded with 2.5 μM DAF-FM diacetate in HBSS at 37° C. and 5% CO2. After 30 min of incubation, the cells were rinsed with HBSS to remove excess probe, and compounds in fresh HBSS was added to the cells at 10 μM final concentration. After 30 min incubation, the fluorescence of the benzotriazole derivative formed on DAF-FM's reaction with aerobic NO was analyzed by using a PerkinElmer Life and Analytical Sciences LS50B luminescence spectrometer with the excitation source at 495 nm and emission at 515 nm. All experiments were performed at least three times, each time at least in triplicate.

PARP enzyme = biological target: T1, PARP enzyme (Homo sapiens, UniProt P09874); assay: PARP enzyme inhibition, HT Universal Colorimetric PARP assay kit with GSH; assay type: biochemical; conditions: GSH 1 mM added to activate prodrugs; absorbance 450 nm
T1 construct: purchased Trevigen, Gaithersburg, Md
Procedure: PARP enzyme inhibition was measured using HT Universal Colorimetric 96-well PARP assay kit (Trevigen, Gaithersburg, Md.), according to manufacturer's protocol with small modifications. GSH (1 mM final concentration) was added to the wells containing inhibitors, to allow activation of the prodrugs. The absorbance at 450 nm was measured.

NSCLC cell lines = assay: MTT cell proliferation assay, panel summary; assay type: cell-based; conditions: range over the NSCLC cell lines, 72 h, read-out: IC50 for growth inhibition across NSCLC cell lines
Procedure: as §1

NSCLC cells [4] = assay: Alkaline comet assay (DNA strand breaks); assay type: cell-based
Procedure: as §2

T1 sequence (P09874 whole entry): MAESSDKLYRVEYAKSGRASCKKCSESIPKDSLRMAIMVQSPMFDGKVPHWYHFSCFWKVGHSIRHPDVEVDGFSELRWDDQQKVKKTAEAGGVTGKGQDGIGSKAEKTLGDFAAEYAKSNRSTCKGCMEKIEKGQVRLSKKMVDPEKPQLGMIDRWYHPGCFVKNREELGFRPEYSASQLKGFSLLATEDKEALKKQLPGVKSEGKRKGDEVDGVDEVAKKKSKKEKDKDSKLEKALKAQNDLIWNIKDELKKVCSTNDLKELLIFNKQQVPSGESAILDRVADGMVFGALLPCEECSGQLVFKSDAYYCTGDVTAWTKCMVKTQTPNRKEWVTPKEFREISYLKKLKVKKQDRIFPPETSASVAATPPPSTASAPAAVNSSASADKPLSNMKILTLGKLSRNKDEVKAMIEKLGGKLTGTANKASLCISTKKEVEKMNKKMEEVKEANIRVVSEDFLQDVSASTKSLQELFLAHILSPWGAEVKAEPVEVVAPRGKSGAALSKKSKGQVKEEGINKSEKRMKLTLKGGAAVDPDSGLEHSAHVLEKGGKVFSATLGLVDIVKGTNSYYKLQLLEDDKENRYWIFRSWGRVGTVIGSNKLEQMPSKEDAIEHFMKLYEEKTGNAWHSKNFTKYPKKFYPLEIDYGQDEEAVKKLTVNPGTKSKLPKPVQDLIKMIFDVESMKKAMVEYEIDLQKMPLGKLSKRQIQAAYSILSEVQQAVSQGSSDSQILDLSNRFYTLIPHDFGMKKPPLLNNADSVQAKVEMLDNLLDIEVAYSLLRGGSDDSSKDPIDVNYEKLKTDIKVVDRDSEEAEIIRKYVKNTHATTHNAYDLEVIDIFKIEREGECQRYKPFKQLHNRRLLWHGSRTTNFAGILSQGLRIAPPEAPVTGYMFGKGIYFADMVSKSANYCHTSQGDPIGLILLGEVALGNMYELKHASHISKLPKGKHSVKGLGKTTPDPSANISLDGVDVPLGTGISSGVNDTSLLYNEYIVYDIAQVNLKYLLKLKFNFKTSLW

SMILES | TGI (total growth inhibition) (H1355; H1355, 72 h) | TGI (total growth inhibition) (A549) | TGI (total growth inhibition) (H2030; H2030, 72 h) | TGI (total growth inhibition) (H1944; H1944, 72 h) | TGI (total growth inhibition) (H2122; H2122, 72 h) | TGI (total growth inhibition) (H23; H23, 72 h, MTT) | TGI (total growth inhibition) (H1693; H1693, 72 h) | TGI (total growth inhibition) (H441; H441, 72 h) | TGI (total growth inhibition) (H2023; H2023, 72 h, MTT) | TGI (total growth inhibition) (H1568; H1568, 72 h) | TGI (total growth inhibition) (H1792; H1792, 72 h) | TGI (total growth inhibition) (H322M; H322M, MTT) | apoptotic signal (cleaved caspase 7) (NSCLC cells [1]) | TGI (total growth inhibition) (H460; H460, 72 h) | TGI (total growth inhibition) (H1703; H1703, 72 h) | ROS generation (DCF fluorescence) [2] | intracellular NO release (DAF fluorescence) [3] | cell permeability [3] | IC50 (PARP enzyme) | other results
O=C(c1cc(Cc2n[nH]c(=O)c3ccccc23)ccc1F)N1CCN(C(=O)C2CC2)CC1 [Olaparib, olaparib, reference compound] | 113 µM | 100 µM | 117 µM | 88 µM | 140 µM | 70 µM | 65 µM | 84 µM | 85 µM | 113 µM | 38 µM | 360 µM | did not trigger apoptosis | 37 µM |  |  |  |  |  | IC50 (H23; Homo sapiens, NCI-H23, 72 h): 10 µM; IC50 (H2023; NCI-H2023, 72 h): 20 µM; IC50 (H322M; Homo sapiens, NCI-H322M): 50 µM
O=C(c1cccc(Cc2n[nH]c(=O)c3ccccc23)c1)N1CCN([N+]([O-])=NOc2ccc([N+](=O)[O-])cc2[N+](=O)[O-])CC1 [JS-59-183, 2,4-dinitrophenyl 4-[5-[(4-oxo-3H-phthalazin-1-yl)methyl]-benzoyl]piperazine-1-yl-1-ium-1,2-diolate] | 23.0 µM | 26.0 µM | 25.0 µM | 28.0 µM | 25.0 µM | 15.2 µM | 7.3 µM | 11.7 µM | 32.5 µM | 9.0 µM | 20.0 µM | 14.0 µM | strong apoptotic signal | 24.8 µM | 11.2 µM | increase in ROS generation | decompose within the cell releasing NO | cell permeable | 0.00825 µM | IC50 (H1355; H1355, 72 h): 11.4 µM; IC50 (A549): 16.8 µM; IC50 (H2030; H2030, 72 h): 13.8 µM; IC50 (H1944; H1944, 72 h): 14 µM; IC50 (H1703; H1703, 72 h): 6.8 µM; IC50 (H2122; H2122, 72 h): 11.2 µM; IC50 (H23; H23, 72 h, MTT, read-out: IC50): 7.5 µM; IC50 (H1693; H1693, 72 h): 5.3 µM; IC50 (H441; H441, 72 h): 8.1 µM; IC50 (H2023; H2023, 72 h, MTT, read-out: IC50): 19.4 µM; IC50 (H1568; H1568, 72 h): 6.5 µM; IC50 (H1792; H1792, 72 h): 14 µM; IC50 (H322M; H322M, MTT, read-out: IC50): 9 µM; IC50 (H460; H460, 72 h): 13.8 µM
O=C(c1cc(Cc2n[nH]c(=O)c3ccccc23)ccc1F)N1CCN([N+]([O-])=NOc2ccc([N+](=O)[O-])cc2[N+](=O)[O-])CC1 [JS-60-178, 2,4-dinitrophenyl 4-[2-fluoro-5-[(4-oxo-3H-phthalazin-1-yl)methyl]-benzoyl]piperazine-1-yl-1-ium-1,2-diolate] | 15.0 µM | 22.0 µM | 15.2 µM | 19.0 µM | 11.0 µM | 12.3 µM | 6.6 µM | 6.2 µM | 25.0 µM | 4.0 µM | 19.0 µM | 11.6 µM | strong apoptotic signal | 24.0 µM | 6.7 µM | increase in ROS generation | decompose within the cell releasing NO | cell permeable | 0.0029 µM | IC50 (H1355; Homo sapiens, NCI-H1355, H1355, 72 h): 8.2 µM; IC50 (A549; Homo sapiens): 13.5 µM; IC50 (H2030; Homo sapiens, NCI-H2030, H2030, 72 h): 9.2 µM; IC50 (H1944; Homo sapiens, NCI-H1944, H1944, 72 h): 10.5 µM; IC50 (H1703; Homo sapiens, NCI-H1703, H1703, 72 h): 4.3 µM; IC50 (H2122; Homo sapiens, NCI-H2122, H2122, 72 h): 7.5 µM; IC50 (H23; Homo sapiens, NCI-H23, H23, 72 h, MTT, read-out: IC50): 8.4 µM; IC50 (H1693; Homo sapiens, NCI-H1693, H1693, 72 h): 5.4 µM; IC50 (H441; Homo sapiens, NCI-H441, H441, 72 h): 4.5 µM; IC50 (H2023; NCI-H2023, H2023, 72 h, MTT, read-out: IC50): 15 µM; IC50 (H1568; NCI-H1568, H1568, 72 h): 3 µM; IC50 (H1792; Homo sapiens, NCI-H1792, H1792, 72 h): 12.7 µM; IC50 (H322M; Homo sapiens, NCI-H322M, H322M, MTT, read-out: IC50): 7.9 µM; IC50 (NSCLC cell lines): 3 to 20 µM; comet signal compared with Olaparib (20 μm) (NSCLC cells [4]; 5 μM, 24 hours): stronger comet signal; DNA strand break damage by Comet assay (NSCLC cells [4]; 24 hours treatment): significant DNA strand break damage; IC50 (H460; Homo sapiens, NCI-H460, H460, 72 h): 16.4 µM
